What all share (experiment): area under concentration-response curve (viability) (AUC (a.u.)); higher = less active
Common to all, as to details: 48 h

The test system of test [1] is CU-ACC1. The method, boiled down:
(§1)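 AC50 and area under the curve values derive from fitted concentration-response curves, restricted to inhibitory or non-responding curve classes. The curves came from three adrenocortical carcinoma cell lines in 1,536-well plates, each receiving 23 nL of every library compound at 11 concentrations. Viability was read by CellTiter-Glo luminescence after 48 h, normalised per plate to vehicle and empty-well controls.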

The test system of test [2] is CU-ACC2. Summed up: as §1
For test [3], the system named is NCI-H295R. The method, boiled down:
as §1

The values that follow come from the supplement of paper PMC10949913.

For `Cc1cc(SCc2sc(-c3ccc(C(F)(F)F)cc3)nc2C)ccc1OCC(=O)O`, the “area under concentration-response curve” value in test [1] was 517; in test [2] it was 608; in test [3], 540.

On to `CC(=O)OCC(=O)[C@@]12OC(C)(C)O[C@@H]1C[C@H]3[C@@H]4C[C@H](F)C/5=C/C(=O)/C=C\[C@]5(C)[C@@]4(F)[C@@H](O)C[C@]23C`, for which the “area under concentration-response curve” value amounted to 439 in test [1], 528 in test [2] and 519 in test [3].

In the case of `CC[C@H](NC(C)C)[C@H](O)C1=CC=C(O)C2=C1\C=C/C(=O)N2`, the “area under concentration-response curve” value in test [1] came to 566; in test [2], 650; in test [3], 564.

With `CC(C)(C)NCC(O)c1ccc(O)c(CO)c1` (stereo not drawn), the “area under concentration-response curve” value in test [1] was found to be 504; in test [2], 598; in test [3], 567.

For `NC/1=N/C(=O)C2=C([NH]C=C2CCC3=CC=C(C=C3)C(=O)N[C@@H](CCC(O)=O)C(O)=O)N1`, the “area under concentration-response curve” value amounted to 523 in test [1], 590 in test [2] and 537 in test [3].

For `O=C([O-])Cc1ccccc1Nc1c(Cl)cccc1Cl`, the “area under concentration-response curve” value in test [1] worked out at 536; in test [2], 645; in test [3], 585.

As to `Oc1cc2c(cc1O)C1c3ccc(O)c(O)c3OCC1(O)C2` (stereo not drawn), the “area under concentration-response curve” value in test [1] is 546; in test [2] it was 542; in test [3] it was 527.

Take `C[C@@H](c1ncncc1F)[C@](O)(Cn1cncn1)c1ccc(F)cc1F`: the “area under concentration-response curve” value was found to be 409 in test [1], 513 in test [2] and 475 in test [3].

Consider `CCCOc1ccc2[nH]c(NC(=O)OC)nc2c1`, for which the “area under concentration-response curve” value in test [1] turned out to be 499; in test [2], 568; in test [3], 480.

In the case of `N[C@@H]1CONC1=O`, the figures for the “area under concentration-response curve” value in test [1], in test [2] and in test [3] were 533, 497 and 559, respectively.

Take `CC(C)(C)[S+](=O)([O-])c1ccc2nccc(Nc3n[nH]c4ccc(F)cc34)c2c1`: the “area under concentration-response curve” value stood at 526 in test [1], 627 in test [2] and 561 in test [3].

Consider `COc1nc(-c2ccc3c(c2)OCO3)n(-c2ccc(NC(=O)CSc3ccccc3)cc2)n1`, for which the “area under concentration-response curve” value in test [1] turned out to be 408; in test [2] it was 611; in test [3], 573.

Take `O=C(NCCCNc1nc(Nc2cccc(NC(=O)N3CCCC3)c2)ncc1I)c1cccs1`: the “area under concentration-response curve” value in test [1] came to 498; in test [2] it was 482; in test [3], 539.

`CC(C)NCC(O)COc1ccc(CCOCC2CC2)cc1` (stereo not drawn): the “area under concentration-response curve” value in test [1] came to 493; in test [2], 560; in test [3] it was 536.

Turning to `OC[C@H]1O[C@@H]2[C@@H](OC\3=N\C(=N)\C=C/[N@@]23)[C@@H]1O`, the “area under concentration-response curve” value in test [1] was 488; in test [2] it was 504; in test [3], 472.

Regarding `O=C1[O][Pt]2([NH]C3CCCCC3[NH]2)[O]C1=O` (stereo not drawn), the “area under concentration-response curve” value in test [1] was found to be 564; in test [2] it was 631; in test [3], 565.

Consider `O=C(O)c1ccccc1C(=O)Nc1ccc(-c2ccccc2)cc1`, for which the “area under concentration-response curve” value turned out to be 514 in test [1], 580 in test [2] and 491 in test [3].

Take `COC12C(COC(N)=O)\C3=C(/N1CC4C2N4C)C(=O)C(=C(N)/C3=O)\C` (stereo not drawn): the “area under concentration-response curve” value in test [1] amounted to 506; in test [2], 544; in test [3], 507.

Consider `C[S+]([O-])(=O)NC1=CC2=C(C=C1OC3=CC=CC=C3)C(=O)\C(=C/O2)NC=O`, for which the “area under concentration-response curve” value in test [1] was 477; in test [2], 508; in test [3], 487.

In the case of `CCN(C(=O)C/1=C(O)/C2=C(C=CC=C2Cl)N(C)C1=O)C3=CC=CC=C3`, the “area under concentration-response curve” value was determined as 489 in test [1], 566 in test [2] and 555 in test [3].

Turning to `COC1=CC=CC=C1C2=CC=CC(=C2)C/3=C(O)/C4=CC(=C(Cl)C=C4NC3=O)C#N`, the “area under concentration-response curve” value in test [1] was determined as 542; in test [2], 589; in test [3], 562.

For `CC(COc1ccccc1)N(CCCl)Cc1ccccc1` (stereo not drawn), the “area under concentration-response curve” value came out at 549 in test [1], 653 in test [2] and 584 in test [3].

`O=C1\C=C(OC2=C(C=CC=C12)C3=CC=CC4=C3SC5=C4C=CC=C5)\N6CCOCC6`: the “area under concentration-response curve” value in test [1] was found to be 374; in test [2], 557; in test [3] it was 497.

With `CO[C@@H]1[C@@H](OC(N)=O)[C@@H](O)[C@H](OC2=CC=C3\C(=C(NC(=O)C4=CC=C([O-])C(=C4)CC=C(C)C)/C(=O)OC3=C2C)O)OC1(C)C`, the “area under concentration-response curve” value in test [1] was found to be 535; in test [2], 531; in test [3], 539.

As for `NCCc1ccc(O)c(O)c1`, the entries for the “area under concentration-response curve” value in test [1], in test [2] and in test [3] were 506, 586 and 478, respectively.

On to `COC1(C[S+]([O-])c2ccccc2)CCN(CCc2c[nH]c3ccc(F)cc23)CC1` (stereo not drawn), for which the “area under concentration-response curve” value in test [1] stood at 477; in test [2] it was 469; in test [3], 493.

For `NCCCC(N)(C(=O)O)C(F)F` (stereo not drawn), the “area under concentration-response curve” value was determined as 443 in test [1], 514 in test [2] and 491 in test [3].

Regarding `O=C(C1CCCCC1)N1CC(=O)N2CCc3ccccc3C2C1` (stereo not drawn), the “area under concentration-response curve” value was 555 in test [1], 631 in test [2] and 544 in test [3].

For the compound `OC[C@@H](O)[C@@H](O)[C@H](O)[C@@H](O)CO`, the “area under concentration-response curve” value in test [1] is 562; in test [2], 645; in test [3], 592.

In the case of `CN1CC[C@@H](NC(=O)Nc2ccc(C#N)cc2)C[C@@H]1c1nc2ccccc2[nH]1`, the “area under concentration-response curve” value amounted to 485 in test [1], 595 in test [2] and 555 in test [3].

On to `COCCCc1sc(-c2ccccc2)nc1C(=O)Nc1ccccc1-c1nc2cc(CN3CCCC3)cnc2s1`, for which the entries for the “area under concentration-response curve” value in test [1], in test [2] and in test [3] were 563, 564 and 567, respectively.
